In assay [1] the target is T1, human EHMT2 913-1193 (Homo sapiens, UniProt Q96KQ7).
T1 construct: recombinant purified human EHMT2 913-1193, Viva; purchased Viva
T1 sequence (Q96KQ7 913-1193): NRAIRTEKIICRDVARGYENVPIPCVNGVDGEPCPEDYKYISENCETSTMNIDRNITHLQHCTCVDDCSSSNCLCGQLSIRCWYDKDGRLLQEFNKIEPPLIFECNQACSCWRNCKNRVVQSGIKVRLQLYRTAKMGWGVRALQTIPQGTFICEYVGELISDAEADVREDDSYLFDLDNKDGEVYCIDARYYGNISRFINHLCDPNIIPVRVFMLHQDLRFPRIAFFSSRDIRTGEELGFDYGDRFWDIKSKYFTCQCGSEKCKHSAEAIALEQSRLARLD
The assay is described as follows: EHMT2 enzyme assay on histone peptide substrate (EHMT2 PEP). It counts as biochemical. The conditions noted are these: Table II; read-out: EHMT2 PEP (IC50 μM). The gist of the method: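 Inhibition is measured as reduced tritium incorporation into a biotinylated histone peptide from ^3H-SAM. The enzyme (0.031 nM) sees compound for 30 minutes before a 60-minute room-temperature reaction, which unlabeled SAM quenches prior to streptavidin Flashplate capture.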

Assay [2] deals with T2, EHMT1 (Homo sapiens, UniProt Q9H9B1).
T2 sequence (Q9H9B1 1-1298): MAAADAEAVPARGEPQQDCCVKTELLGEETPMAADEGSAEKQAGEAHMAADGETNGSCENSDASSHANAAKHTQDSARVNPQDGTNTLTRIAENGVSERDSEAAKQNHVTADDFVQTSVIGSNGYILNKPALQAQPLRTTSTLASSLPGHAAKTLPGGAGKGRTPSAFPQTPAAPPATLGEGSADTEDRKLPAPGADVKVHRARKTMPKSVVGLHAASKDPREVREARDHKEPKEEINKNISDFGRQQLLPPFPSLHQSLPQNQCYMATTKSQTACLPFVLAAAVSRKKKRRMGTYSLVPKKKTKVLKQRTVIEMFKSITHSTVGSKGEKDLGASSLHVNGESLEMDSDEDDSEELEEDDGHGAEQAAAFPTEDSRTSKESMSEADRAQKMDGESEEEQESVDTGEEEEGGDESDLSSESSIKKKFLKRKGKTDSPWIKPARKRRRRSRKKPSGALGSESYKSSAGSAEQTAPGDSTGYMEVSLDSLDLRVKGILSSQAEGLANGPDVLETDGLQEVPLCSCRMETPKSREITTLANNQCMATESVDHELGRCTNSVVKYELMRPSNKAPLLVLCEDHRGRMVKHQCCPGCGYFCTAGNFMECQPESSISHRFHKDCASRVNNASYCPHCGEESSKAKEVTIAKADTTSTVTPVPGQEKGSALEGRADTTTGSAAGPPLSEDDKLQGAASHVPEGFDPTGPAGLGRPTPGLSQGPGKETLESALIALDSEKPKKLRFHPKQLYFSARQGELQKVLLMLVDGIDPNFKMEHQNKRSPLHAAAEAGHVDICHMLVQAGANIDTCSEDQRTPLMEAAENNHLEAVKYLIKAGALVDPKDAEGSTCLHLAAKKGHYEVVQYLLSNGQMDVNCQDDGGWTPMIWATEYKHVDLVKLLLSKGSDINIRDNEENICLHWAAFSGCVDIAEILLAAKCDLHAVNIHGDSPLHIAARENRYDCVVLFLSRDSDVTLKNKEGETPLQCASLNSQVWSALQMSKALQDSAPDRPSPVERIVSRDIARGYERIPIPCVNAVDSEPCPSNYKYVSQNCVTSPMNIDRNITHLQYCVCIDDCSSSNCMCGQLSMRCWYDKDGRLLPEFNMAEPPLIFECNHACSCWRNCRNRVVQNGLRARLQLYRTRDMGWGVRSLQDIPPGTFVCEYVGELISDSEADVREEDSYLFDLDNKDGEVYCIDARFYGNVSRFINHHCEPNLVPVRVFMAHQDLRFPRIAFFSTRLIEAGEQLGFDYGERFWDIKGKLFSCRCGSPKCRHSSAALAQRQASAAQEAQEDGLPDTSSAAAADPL
The assay is described as follows: EHMT1 enzyme assay on peptide substrate (EHMT1 PEP). It counts as biochemical. Particulars: Table II; read-out: EHMT1 PEP (IC50 μM).

A value given as a limit tells only on which side of the number the result lay.

What is called IC50 is the concentration that gives 50% inhibition.

Regarding `COc1ccc(Nc2nccc(NCC3CCNCC3)n2)cc1OCC(O)CN1CCCC1` (centres unmarked) [Compound 15, 1-(2-methoxy-5-((4-((piperidin-4-ylmethyl)amino)pyrimidin-2-yl)amino)phenoxy)-3-(pyrrolidin-1-yl)propan-2-ol], the IC50 in assay [1] and in assay [2] was < 0.1 µM throughout.

Source of the values: patent US20210198277A1, “AMINE-SUBSTITUTED ARYL OR HETEROARYL COMPOUNDS” (Epizyme, Inc., priority 2016, published 2021).
